Laboratory results: the supplement of paper PMC10307832

Experiments:
Assay in all cases: relative viability (nuclei count vs DMSO), 5 days (fraction); higher = more cells survive
KN-93 = compound: CN(C/C=C/C1=CC=C(C=C1)Cl)CC2=CC=CC=C2N(CCO)S(=O)(=O)C3=CC=C(C=C3)OC [KN-93]
Method in brief: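 Viability is treated-well nuclei as a fraction of vehicle-well nuclei, reported as the median across plates. Before counting, lung cancer cell lines were kept overnight at 37 °C in 1536-well plates, pinned with five √10-spaced library-drug doses on vehicle-anchored plates, and left 5 days without medium change, then fixed, permeabilised and Hoechst-stained in one step, imaged at 4× and counted by MetaXpress. A plate passed only if control CV was below 25% and at least one doubling occurred.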

KN-93 + Linsitinib = compound: CN(C/C=C/C1=CC=C(C=C1)Cl)CC2=CC=CC=C2N(CCO)S(=O)(=O)C3=CC=C(C=C3)OC [KN-93] + C[C@]1(O)C[C@@H](c2nc(-c3ccc4ccc(-c5ccccc5)nc4c3)c3c(N)nccn32)C1 [Linsitinib] (partner 1 µM)
Method in brief: (§1)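 Five library-drug doses in √10 steps were combined with a fixed anchor-drug dose, or a single drug was given alone, by pin tool to lung cancer cell lines in 1536-well plates the day after seeding. Nuclei were stained and counted after 5 days. Relative viability is the nuclei count in treated wells over that in vehicle wells, taken as the median of duplicate plates.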

KN-93 + Luminespib = compound: CN(C/C=C/C1=CC=C(C=C1)Cl)CC2=CC=CC=C2N(CCO)S(=O)(=O)C3=CC=C(C=C3)OC [KN-93] + CCNC(=O)c1noc(-c2cc(C(C)C)c(O)cc2O)c1-c1ccc(CN2CCOCC2)cc1 [Luminespib] (partner 0.01 µM)
Method in brief: as §1

KN-93 + Vorinostat = compound: CN(C/C=C/C1=CC=C(C=C1)Cl)CC2=CC=CC=C2N(CCO)S(=O)(=O)C3=CC=C(C=C3)OC [KN-93] + O=C(CCCCCCC(=O)Nc1ccccc1)NO [Vorinostat] (partner 1 µM)
Method in brief: as §1

KN-93 + Crizotinib = compound: CN(C/C=C/C1=CC=C(C=C1)Cl)CC2=CC=CC=C2N(CCO)S(=O)(=O)C3=CC=C(C=C3)OC [KN-93] + C[C@@H](Oc1cc(-c2cnn(C3CCNCC3)c2)cnc1N)c1c(Cl)ccc(F)c1Cl [Crizotinib] (partner 1 µM)
Method in brief: as §1

| Cell Line | relative viability (KN-93; 0.08 µM) | relative viability (KN-93; 0.253 µM) | relative viability (KN-93; 2.53 µM) | relative viability (KN-93; 8 µM) | relative viability (KN-93 + Linsitinib; first compound 0.08 µM) | relative viability (KN-93 + Linsitinib; first compound 0.253 µM) | relative viability (KN-93 + Linsitinib; first compound 2.53 µM) | relative viability (KN-93 + Linsitinib; first compound 8 µM) | relative viability (KN-93 + Luminespib; first compound 0.08 µM) | relative viability (KN-93 + Luminespib; first compound 0.253 µM) | relative viability (KN-93 + Luminespib; first compound 2.53 µM) | relative viability (KN-93 + Luminespib; first compound 8 µM) | relative viability (KN-93 + Vorinostat; first compound 0.08 µM) | relative viability (KN-93 + Vorinostat; first compound 0.253 µM) | relative viability (KN-93 + Vorinostat; first compound 2.53 µM) | relative viability (KN-93 + Vorinostat; first compound 8 µM) | relative viability (KN-93 + Crizotinib; first compound 0.08 µM) | relative viability (KN-93 + Crizotinib; first compound 0.253 µM) | relative viability (KN-93 + Crizotinib; first compound 2.53 µM) | relative viability (KN-93 + Crizotinib; first compound 8 µM) |
| --- | --- | --- | --- | --- | --- | --- | --- | --- | --- | --- | --- | --- | --- | --- | --- | --- | --- | --- | --- | --- |
| PC-14 | 0.943 | 1.04 | 1.2 | 0.92 | 0.855 | 0.976 | 1.07 | 0.824 | 0.151 | 0.154 | 0.13 | 0.138 | 0.623 | 0.753 | 0.649 | 0.625 | 0.89 | 0.842 | 0.953 | 0.585 |
| RERF-LC-KJ | 0.915 | 1.05 | 0.967 | 0.693 | 0.82 | 0.82 | 0.967 | 0.611 | 1.21 | 1.51 | 1.16 | 0.559 | 0.785 | 0.643 | 0.696 | 0.577 | 0.803 | 0.848 | 0.917 | 0.639 |
| SK-LU-1 | 0.8 | 1.26 | 1.16 | 0.759 | 1.06 | 1.12 | 1.21 | 0.602 | 0.244 | 0.209 | 0.199 | 0.183 | 0.626 | 0.865 | 0.781 | 0.473 | 0.834 | 1.26 | 0.915 | 0.673 |
